Key:
male C57Bl/6J mice [1] = test: Subchronic corticosterone exposure (pellet): body composition, organ weights, leukocytes, plasma insulin, glucose, lipids; type: in vivo; conditions: corticosterone pellet 5 days, 60 mg/kg/day oral gavage
Procedure: (§1) All studies involving animals were approved by the institutional ethics committee on animal care and experimentation at the Leiden University Medical Center. The 8-week old male C57Bl/6J mice (Charles River) were housed in ventilated cages with a 12 h light:12 h darkness regime and ad libitum access to food and water. In the acute corticosterone exposure experiments, mice received a synthetic chow diet (Research Diets, New Brunswick, NJ, USA) containing vehicle or CORT125281 (6, 20 or 60 mg/kg/day, Corcept Therapeutics, Menlo Park, CA, USA) for 6 days. […] Mice were treated daily with vehicle, 60 mg/kg mifepristone (Corcept Therapeutics) or 60 mg/kg CORT125281 (dissolved in PBS with 0.1% Tween 80 and 0.5% hydroxypropylmethylcellullose, Corcept Therapeutics) via oral gavage for 5 days, after which mice were killed by CO2 inhalation. Throughout the experiment, body weight was monitored and body composition was determined with EchoMRI™ (Frankfurt, Germany). After 5 days, blood was collected from the lateral tail vain in paraoxon-coated capillaries after a 6-h fast. Plasma triglyceride, total cholesterol, free fatty acid, glucose and insulin levels were determined using commercially available kits (Roche; Instruchemie, Delfzijl, Netherlands and Crystal Chem, Zaandam, Netherlands). Blood concentrations of the major leukocyte classes, that is, lymphocytes, monocytes and eosinophils, were determined in whole blood using an automatic veterinary hematology analysis (Sysmex XT-2000iV; Goffin Meyvis, Etten-Leur, the Netherlands).
(§2) In both acute and subchronic corticosterone experiments, relevant tissues (including quadriceps muscle, interscapular BAT, gonadal white adipose tissue (WAT), adrenals, spleen, thymus, pituitary and hippocampus) were collected to determine tissue weight and/or for further molecular analysis.

GR [2] = test system: GR; parameters: method as in Lahteenmaki et al. 1987, Kroon et al. 2018; conditions: half maximal inhibitory concentration of the GR antagonist; ref Lahteenmaki et al. 1987, Kroon et al. 2018; cited from earlier work
[3] = target: T1, human GR ligand-binding domain (Homo sapiens, UniProt P04150); test: MARCoNI peptide interaction profiling (coregulator-nuclear receptor interaction); type: biochemical; conditions: CORT125281 1 µM
T1 construct: purchased Invitrogen PV4689
T1 sequence (P04150 524-758 limits assumed): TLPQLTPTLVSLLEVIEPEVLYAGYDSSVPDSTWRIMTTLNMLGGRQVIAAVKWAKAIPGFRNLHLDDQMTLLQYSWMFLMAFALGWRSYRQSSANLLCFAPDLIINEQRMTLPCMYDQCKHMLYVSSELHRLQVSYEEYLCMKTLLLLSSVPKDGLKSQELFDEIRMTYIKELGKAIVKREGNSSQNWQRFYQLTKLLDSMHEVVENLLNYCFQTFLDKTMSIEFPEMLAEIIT
Procedure: As the assay utilizes human GR, experiments were performed with cortisol rather than corticosterone. […] Incubation was performed at 20°C in a PamStation96 (PamGene International, Den Bosch, Netherlands) for 40 min. Receptor binding to each peptide on the array, reflected by a fluorescent signal, was quantified by analysis of .tiff images using BioNavigator software (PamGene International).

[4] = test system: GR transcriptional activity; test: Acute corticosterone exposure or basal conditions: RT-qPCR of GR target genes in tissues; type: in vivo, C57Bl/6J mice
Procedure: as §1, §2
Total RNA was isolated from snap-frozen tissues using TriPure isolation reagent (Roche). After reverse transcription to cDNA (Promega), RT-qPCR was performed using IQ SYBR-Green supermix and MyIQ thermal cycler (Bio-RAD CFX96). Primers were tested for high efficiency (90–110%) and for amplification of a single PCR product. All primer sequences are listed in Supplementary Table 1 (see section on supplementary materials given at the end of this article), with the exception of Ncor1 and Ncor2 which were purchased from Qiagen. Fold change expression was calculated using the 2^−ΔΔ^CT method.

male C57Bl/6J mice [5] = test: Body weight, food intake and immune cell counts under CORT125281 via the diet; type: in vivo; conditions: for body weight / food intake: 6 days
Procedure: as §1

GR [6] = conditions: ref Kroon et al. 2018; cited from earlier work
[7] = test system: hypothalamus-pituitary-adrenal (HPA)-axis activity; test: Basal and novelty stress-induced HPA-axis activity (ACTH, corticosterone, pituitary Pomc, adrenal weight); type: in vivo, C57Bl/6J mice
Procedure: as §1, §2
Novelty stress tests were performed in the morning (between 08:00–12:00 h) after 2 days of exposure to CORT125281. At t = 0, a blood sample was collected, after which mice were placed in a novel cage without bedding. After 10 min, a second blood sample was collected and mice were placed back in their original home cage.
For dual label in situ hybridization, frozen unfixed pituitaries were embedded in tissue-tek OCT (Sakura Finetek, Alphen aan den Rijn, Netherlands), sliced (12 µm) and collected on glass slides (Superfrost Plus, Thermo Fisher Scientific). Dual label in situ hybridization was performed using the QuantiGene ViewRNA ISH Tissue 2-Plex Assay (Thermo Fisher Scientific) and pictures were captured with a wide-field microscope (DM6B, Leica Microsystems). For 4-plex in situ hybridization, frozen, unfixed brain slices (12 µm) were collected on glass slides at bregma −0.772 mm (PVN) and −1.532 mm (hippocampus). 4-plex in situ hybridization was performed using the RNAScope fluorescent multiplex assay and RNAscope 4-plex ancillary kit (Advanced Cell Diagnostics, Newark, CA, USA) and Opal fluorophores 520, 570, 620 and 690 (PerkinElmer). Pictures were captured with a confocal microscope (SP8 WLL, Leica Microsystems). All pictures were analysed with ImageJ Software (NIH).

[8] = 60 mg/kg/day, corticosterone 1.5 mg/kg, liver
[9] = 60 mg/kg/day, without corticosterone exposure

## Cn1ncc(S(=O)(=O)N2CC[C@H]3Cc4c(cnn4-c4ccc(F)cc4)C[C@]3(C(=O)c3cc(C(F)(F)F)ccn3)C2)n1 [CORT125281]
Male C57Bl/6J mice [1]
  HOMA-IR: improved
  corticosterone-induced alteration in body weight (BW) gain: did not prevent
  corticosterone-induced hyperlipidaemia (plasma triglycerides, total cholesterol): seemed to modestly reduce
  free fatty acid levels: did not affect
  glucose levels: improved
  lean mass (reduced by corticosterone): not altered
  thymus weight: did not prevent
Male C57Bl/6J mice [1]; 6-h fast
  corticosterone-induced hyperinsulinemia: partially prevented
GR [2]
  IC50: 427 nM
[3]
  hierarchal clustering of ligand-induced GR-coregulator response profile: clustered with that of mifepristone
  number of coregulator motifs recruited compared to mifepristone: tended to recruit fewer motifs
[3]; mifepristone 0.1 µM
  binding of corepressor motifs of NCOR1 and NCOR2 (SMRT) by ligand-GR complex: only very modestly
[4]; 60 mg/kg/day via food 6 days, corticosterone 1.5 mg/kg s.c. 1 h before killing, liver
  corticosterone-induced mRNA of GR target genes in liver: complete blockade
[4]; 60 mg/kg/day via food 6 days, corticosterone 1.5 mg/kg, BAT
  corticosterone-induced GR target genes in BAT: inhibition of only a subset of corticosterone-induced genes
[4]; 60 mg/kg/day via food 6 days, corticosterone 1.5 mg/kg, WAT
  corticosterone-induced GR target genes in WAT: no effects
[4]; 60 mg/kg/day via food 6 days, corticosterone 1.5 mg/kg, hippocampus
  corticosterone-induced GR target genes in hippocampus: no effects
[4]; 60 mg/kg/day via food 6 days, corticosterone 1.5 mg/kg, quadriceps muscle
  corticosterone-induced GR target genes in muscle: inhibition of only a subset of corticosterone-induced genes
[4]; [8]
  corticosterone induction of G6pc in liver: a similar pattern was observed
  corticosterone induction of Pepck in liver: blocked the induction
[4]; 60 mg/kg/day, corticosterone 1.5 mg/kg, muscle
  corticosterone induction of Murf1 in muscle: completely blocked
[4]; 60 mg/kg/day, intact animals without prior corticosterone exposure
  mRNA levels of Gilz and G6p in liver: inhibited mRNA levels
[4]; [9]
  Cd36 expression in BAT: upregulated
  GR target gene expression in WAT: did not affect
  GR target gene expression in muscle: did not affect
[4]; 60 mg/kg/day, without corticosterone exposure, to a very modest extent
  expression of Sgk1 and Mt2a in hippocampus: downregulated
[4]; 6-20 mg/kg/day doses, BAT
  antagonistic actions on corticosterone-induced genes in BAT: completely lost
[4]; 6 and 20 mg/kg/day, solvent injection
  Mt2a expression in liver of solvent-injected mice: inhibited
[4]; lower doses 6 and 20 mg/kg/day, 6 days, corticosterone 1 h before tissue collection
  corticosterone-induced GR transcriptional activity of Fkbp5, Gilz, Sgk1 and Mt2a in liver: partially inhibited
[4]; lower doses 6 and 20 mg/kg/day, WAT
  GR transcriptional activity in WAT: did not inhibit
[4]; via food 6 days, liver
  dose required to attenuate corticosterone-induced expression of Fkbp5 and Gilz in liver: 20 mg/kg/day
  dose sufficient to attenuate corticosterone-induced expression of Sgk1 and Mt2a in liver: 6 mg/kg/day
Male C57Bl/6J mice [5]; 60 mg/kg/day via diet 6 days, without excess corticosterone exposure
  immune counts (WBC, lymphocytes, monocytes, eosinophils): did not alter
Male C57Bl/6J mice [5]; 60 mg/kg/day via food
  body weight: did not alter
  food intake: did not alter
Male C57Bl/6J mice [5]; 6 and 20 mg/kg/day via food
  body weight: did not alter
  food intake: did not alter
GR [6]
  partial agonism at GR in reporter assays: very low partial agonism
[7]; 60 mg/kg/day
  adrenal weights: did not alter
  peak and trough corticosterone levels: did not alter
  peak novelty stress-induced corticosterone levels: slightly attenuated
[7]; 60 mg/kg/day, novelty stress
  slope of corticosterone during the recovery phase (t = 30 to 120 min): unaltered
[7]; 6-20 mg/kg/day
  GR (Nr3c1) mRNA expression in the anterior pituitary: increased
  expression of pro-opiomelanocortin (Pomc) in the anterior pituitary: unaltered
  weight of adrenals: unaltered
[7]; 6-20 mg/kg/day, 08:00 h and 18:00 h
  basal peak or trough corticosterone levels: did not alter
[7]; 6 and 20 mg/kg/day vs vehicle, all measured time points, day 2
  corticosterone levels after novelty stress: similar
[7]; 6 and 20 mg/kg/day, 18:00 on day 4
  circulating levels of ACTH: unchanged

From PMC7274539, “The selective glucocorticoid receptor antagonist CORT125281 has tissue-specific activity” (The Journal of Endocrinology, 2020)
